# Reference: patent US20250020650A1, “METHOD OF PREDICTING A PATIENT'S BENEFIT FROM THERAPY WITH AN IMMUNE CHECKPOINT INHIBITOR” (EBERHARD KARLS UNIVERSITAET TUEBINGEN MEDIZINISCHE FAKULTAET, priority 2021, published 2025)
# Tests used:
# platelets = assay: Controlled platelet stimulation, flow cytometry of pPD-L1; format: cell-based, human; details: 10 μM TRAP-6, 2.5 μM ADP or 5 μg/mL collagen for 2 minutes, NSCLC patient platelets
# Procedure: Platelets were obtained from healthy donors (not taking any medication for at least 10 days) and NSCLC patients after informed writing consent. Citrated blood was briefly centrifuged for 20 min at 120×g, the upper fraction was harvested as platelet-rich plasma (PRP). Platelets were washed twice with citrate wash buffer (128 mmol/L NaCl, 11 mmol/L glucose, 7.5 mmol/L Na2HPO4, 4.8 mmol/L sodium citrate, 4.3 mmol/L NaH2PO4, 2.4 citric acid, 0.35% bovine serum albumin, and 50 ng/ml prostaglandin E1 (PGE1)). […] For platelet activation 10 μM of the Thrombin Receptor Activator Peptide 6 (TRAP-6), a protease-activated receptor 1 (PAR1) agonist, 2.5 μM ADP or 5 μg/mL Collagen was added to the platelets for 2 minutes. Platelets were fixed by 2% paraformaldehyde for 10 min and washed twice with PBS containing 1% FCS.
# Flow cytometry was performed using fluorescence-conjugates or specific mAb and their controls followed by species-specific conjugate (Table 2) using a FACS Cantoll flow cytometer […] or a LSRFortessa (Becton Dickinson) from the flow cytometer facility Tuebingen.
# Positive cells in percentage (%) were calculated as follows: Surface expression in percent obtained with the specific antibody—surface expression in percent obtained with isotype control. Platelets were preselected by CD41a^+ and CD62P^− (resting) or CD62P^+ (activated). Data analysis was performed using FlowJo software (v.10). In order to verify the reproducibility of the inventors' flow cytometry system, the inventors performed a Bland-Altman analysis (FIG. 11 f). For immunophenotyping of PBMC subsets of lung cancer patients and healthy control donors were identified by counterstaining with CD3-PECy5 (BD biosciences, San Diego, CA), CD19-APC/Fire750, CD4-Pacific Blue, CD8a-BV605, CD56-PECy7, CD14-BV785, HLA-DR-BV650 (Biolegend, San Diego, CA) and CD16-FITC (Invitrogen). PD-1 and PDL-1 expression as well as activation levels were analyzed using a PD-1-APC or PDL-1-APC and a CD69-PE antibody (BD biosciences), respectively. Isotype controls were obtained from BD biosciences. […]
# [1] = tested on: platelet adhesion to fibronectin; assay: Platelet adhesion to fibronectin-coated surface with platelet-blocking agents; format: cell-based, human; details: washed platelets pretreated 30 minutes at 37° C.; 5 μg/mL anti-CD42b, 20 μg/mL anti-integrin β1 and anti-Integrin α5, 1 μg/mL Tirofiban
# Procedure: To prepare fibronectin matrices, plates were coated with a human plasma fibronectin purified protein (R&D, Minneapolis, MN, USA), (concentration 50 μg/cm^2) for 120 min. For blocking of GPIb-IX-V complex, α5β1 or GPIIbIIIa, washed platelets (8×10^7/mL) were pretreated with 5 μg/mL anti-CD42b (clone: AK2), 20 μg/mL anti-integrin β1 (clone: P4C10) and anti-Integrin α5 (clone: JBS5), 1 μg/mL Tirofiban or corresponding control IgG1 (20 μg/mL) for 30 minutes at 37° C. and 7% CO2. After co-incubation with platelets (8×10^7/mL) for 30 min at 37° C. and 7% CO2, non-adherent platelets were removed via three washing steps using PBS. After removal of non-adherent platelets cells were fixed in 2% PFA in PBS (pH 7.4) for 10 min at −20° C. Platelet adhesion to fibronectin fibrils was evaluated by calculating surface coverage area and platelet count/FoV and from microscopic images using an ImageJ script (v. 1.52).
# [2] = tested on: protein translation in platelets; assay: PD-L1 on cycloheximide pre-treated platelets after co-incubation with PD-L1-GFP transfected A549 cells; format: cell-based, human; details: platelets pre-treated with 100 μM cycloheximide
# Procedure: Tumor cells were coated with platelets as described previously with slight modifications. Briefly summarized, PRP was obtained from fresh whole blood by centrifugation for 20 minutes at 120 g. Platelets were washed twice with citrate wash buffer (128 mmol/L NaCl, 11 mmol/L glucose, 7.5 mmol/L Na2HPO4, 4.8 mmol/L sodium citrate, 4.3 mmol/L NaH2PO4, 2.4 citric acid, 0.35% bovine serum albumin). In some experiments platelets were pretreated with 5 μg/mL anti-CD42b (clone: AK2), 20 μg/mL anti-integrin β1 (clone: P4C10) and anti-Integrin α5 (clone: JBS5) or corresponding control IgG1 (20 μg/mL) for 30 minutes at 37° C. and 7% CO2. Tumor cells were incubated in platelets at a platelet-tumor cell ratio of […] for 30 minutes at 37° C. and 7% CO2. For immunofluorescence microscopy and FACS analysis cells were fixed in 2% PFA in PBS (pH 7.4) for 10 min at −20° C. prior staining.
# For overexpression of PD-L1 (CD274) a True-ORF-GFP-tagged expression vector was used (OriGene Technologies, Rockville, MD, USA). Control cells were transfected using a FLAG tag. The FLAG cDNA was generated by PCR and cloned into the PD-L1-GFP vector using AsiSI and MluI restriction sites. Tumor cells were transfected with 2.5 μg DNA (PD-L1-GFP, FLAG-GFP) using Lipofectamine™ 3000, in accordance to the manufacturer's instructions.
# PD-L1 on platelets [3] = target: T1, PD-L1 on platelets (Homo sapiens, UniProt Q9NZQ7); assay: IFNγ ELISPOT and cytokine staining of EBV/CMV peptide-stimulated T cells co-incubated with PD-L1 positive platelets; format: cell-based; details: platelets from NSCLC patients pre-treated 30 min, EBV/CMV-derived peptides, IFNγ and TNFα
# T1 construct: PD-L1 positive platelets from NSCLC patients were pre-treated with the anti-PD-L1 mAB Atezolizumab; endogenous in cells; host or cells: platelets from the peripheral blood of NSCLC patients
# T1 sequence (Q9NZQ7 19-290): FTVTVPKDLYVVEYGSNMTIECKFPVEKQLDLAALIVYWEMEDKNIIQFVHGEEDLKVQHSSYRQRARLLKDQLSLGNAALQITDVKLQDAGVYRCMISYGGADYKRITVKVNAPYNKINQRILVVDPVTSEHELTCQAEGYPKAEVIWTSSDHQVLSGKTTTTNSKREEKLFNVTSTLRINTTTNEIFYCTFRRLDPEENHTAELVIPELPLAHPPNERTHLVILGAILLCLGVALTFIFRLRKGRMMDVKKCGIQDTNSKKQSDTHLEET
# Procedure: Freshly thawed (ex vivo) PBMCs from healthy donors were analyzed by enzyme-linked immunospot (ELISPOT) assay in duplicates. Interferon γ (IFNγ) ELISPOT assays in the inventors' study were performed as described previously. In brief, 96-well nitrocellulose plates (Millipore) were coated with 1 mg/mL anti-IFNγ mAb (Mabtech) and incubated overnight at 4° C. In a next step, plates were blocked with human serum (10%) for 2 hours at 37° C. PBMCs (2.5×10^5 cells per well) were pulsed with an EBV/CMV epitope mix containing the frequently recognized peptides BRLF109-117 […] (SEQ ID NO: 11) (A*02) peptide and CMV pp65 (A*02) peptide NLVPMVATV (SEQ ID NO: 12) and incubated with or without platelets (ratio 1:50) for 24 hours. Phytohemagglutinin was used as positive control. HLA-A*02 (KLFEKVKEV (SEQ ID NO: 13))- and B*07 (KPSEKIQVL (SEQ ID NO: 14))-restricted control peptides derived from benign tissues (HV-exclusive HLA ligands) served as negative control. […] Readout was performed according to the manufacturer's instructions. Spots were counted using an ImmunoSpot S5 analyzer (CTL).
# Peptide-specific T cells were further analyzed by intracellular cytokine and cell surface marker staining. […] Viable cells were determined using Aqua live/dead (1:400 dilution, Invitrogen). Samples were analyzed on a FACS Canto II cytometer (BD) and evaluated using FlowJo software v. […]
# PD-L1 on platelets [4] = target: T1, PD-L1 on platelets; assay: NY-ESO-1 specific CD4+ TEM co-incubated with PD-L1 positive platelets (IFNγ and TNFα); format: cell-based; details: pPD-L1 positive platelets pre-treated with Atezolizumab 100 μg/mL for 30 min, NY-ESO-1 peptides
# Procedure: The generation of NY-ESO-1-specific T cells was performed using as described previously. In brief, PBMCs from a healthy donor (1×10^7/mL) were stimulated using pools of NY-ESO-1 overlapping peptides (1 μg/mL). The NY-ESO-1 overlapping peptide pool of 15 amino acid length (11 amino acid overlap) was purchased via Miltenyi Biotec. The cells were cultured in RPMI 1640 containing 10% human AB-serum and 1% L-glutamin in the presence of 10 U/mL recombinant IL-2 and 10 ng/ml II-7. Culture medium was replaced every third day. After a pre-sensitization period of 7-14 days, NY-ESO-1 specific, IFNγ^+ T cells were enriched after re-stimulation with NY-ESO-1 peptide pool for 6 h using CliniMACS® (Miltenyi Biotec) technique as reported previously. After enrichment, NY-ESO-1 specific T cells were expanded for 14 days in the presence of IL-7 (10 ng/ml), IL-15 (10 ng/mL) and IL-2 (50 U/mL). T cell specificity was analyzed via intracellular IFNγ staining as stated above. For further characterization of the T-cells the differentiation markers anti-CD45RO, mouse (1:200, clone: HI100), anti-CD62L, mouse (1:400, clone: DREG-56), anti-CD28, mouse (1:200, clone: CD28.2) and anti-CD27, mouse (1:200, clone: M-T271) were co-analyzed by flow cytometry. […] NY-ESO-1 specific T cell activity was determined by intracellular TNFα and IFNγ quantified via flow cytometry as described above.
molecule,measurement,setting,value
Nc1ncnc2c1ncn2[C@@H]1O[C@H](COP(=O)(O)OP(=O)(O)O)[C@@H](O)[C@H]1O [ADP],pPD-L1 expression on the platelet surface upon platelet stimulation,platelets,maximized
CCCCS(=O)(=O)N[C@@H](Cc1ccc(OCCCCC2CCNCC2)cc1)C(=O)O [Tirofiban],platelet adhesion to fibronectin,[1],only marginally reduced
C[C@@H]1C[C@@H]([C@H](O)CC2CC(=O)NC(=O)C2)C(=O)[C@@H](C)C1 [cycloheximide],PD-L1-GFP expression in platelets,[2],did not result in a reduction
Atezolizumab,T cell inhibitory effect of PD-L1 expressing platelets,PD-L1 on platelets [3],abolished
same,"T cell (CD4+ TEM) activity, IFNγ and TNFα release",PD-L1 on platelets [4],restored
Thrombin Receptor Activator Peptide 6 [TRAP-6],pPD-L1 expression on the platelet surface upon platelet stimulation,platelets,maximized
collagen,pPD-L1 expression on the platelet surface upon platelet stimulation,platelets,maximized
